Test results: PubChem BioAssay AID256 (DTP/NCI, 2004)
Inconclusive results and toxic doses are left out. Rule for the calls: active = survival T/C of 150% or more; inactive = T/C below 125% in these data.

System: CD2F1 mice, L1210 leukemia ip, survival T/C
Assay: NCI In Vivo Anticancer Drug Screen. Data for tumor model L1210 Leukemia (intraperitoneal) in CD2F1 (CDF1) mice
Conditions: endpoint: mean survival time, higher = longer survival
Summary of the method: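 Implant tumor; dose compound or vehicle; measure endpoint in both groups; report treated divided by control.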

[1] = dose: 100.0 mg/kg/injection, schedule: Q04DX003 (ip), vehicle: saline with Tween-80
[2] = dose: 200.0 mg/kg/injection, schedule: Q04DX003 (ip), vehicle: saline with Tween-80
[3] = dose: 400.0 mg/kg/injection, schedule: Q04DX003 (ip), vehicle: saline with Tween-80
[4] = dose: 100.0 mg/kg/injection, schedule: Q01DX009 (ip), vehicle: saline with Tween-80
[5] = dose: 200.0 mg/kg/injection, schedule: Q01DX009 (ip), vehicle: saline with Tween-80
[6] = dose: 100.0 mg/kg/injection, schedule: Q04DX002 (ip), vehicle: saline with Tween-80
[7] = dose: 50.0 mg/kg/injection, schedule: Q01DX009 (ip), vehicle: saline with Tween-80
[8] = dose: 200.0 mg/kg/injection, schedule: Q04DX002 (ip), vehicle: saline with Tween-80
[9] = dose: 400.0 mg/kg/injection, schedule: Q01DX009 (ip), vehicle: saline with Tween-80
[10] = dose: 100.0 mg/kg/injection, schedule: Q01DX009 (ip), vehicle: Klucel (hydroxypropylcellulose) (HPC)
[11] = dose: 200.0 mg/kg/injection, schedule: Q01DX009 (ip), vehicle: Klucel (hydroxypropylcellulose) (HPC)
[12] = dose: 400.0 mg/kg/injection, schedule: Q01DX009 (ip), vehicle: Klucel (hydroxypropylcellulose) (HPC)
[13] = dose: 400.0 mg/kg/injection, schedule: Q04DX002 (ip), vehicle: saline with Tween-80

Measured: T/C

NNC(=O)c1cccc(N)c1
inactive: dose: 25.0 mg/kg/injection, schedule: Q01DX009 (ip), vehicle: saline sonified 98 % of control | dose: 50.0 mg/kg/injection, schedule: Q01DX009 (ip), vehicle: saline sonified 102 % of control | dose: 100.0 mg/kg/injection, schedule: Q01DX009 (ip), vehicle: saline sonified 102 % of control | [1] 104 % of control

CCC[N+](CCC)(CCC)CCC.N#CC(C#N)=C([SH2+])[SH2+].N#CC(C#N)=C([SH2+])[SH2+].N#CC(C#N)=C([SH2+])[SH2+].[Fe+3]
inactive: dose: 25.0 mg/kg/injection, schedule: Q04DX003 (ip), vehicle: acetone 103 % of control | dose: 50.0 mg/kg/injection, schedule: Q04DX003 (ip), vehicle: acetone 97 % of control

CNC(=O)SCc1ccc(Cl)cc1
inactive: [1] 98 % of control | [2] 96 % of control | [3] 102 % of control

N#CCC(=O)N/N=C/c1ccccc1
inactive: [4] 91 % of control | [5] 86 % of control

O=S(=O)(F)c1ccc(S)c(Cl)c1Cl
inactive: [6] 98 % of control

C[N+](C)(C)Cc1ccc([N+](=O)[O-])cc1
inactive: dose: 5.0 mg/kg/injection, schedule: Q01DX001 (ip), vehicle: saline 98 % of control | dose: 10.0 mg/kg/injection, schedule: Q01DX001 (ip), vehicle: saline 106 % of control | dose: 20.0 mg/kg/injection, schedule: Q01DX001 (ip), vehicle: saline 101 % of control | dose: 40.0 mg/kg/injection, schedule: Q01DX001 (ip), vehicle: saline 98 % of control | dose: 80.0 mg/kg/injection, schedule: Q01DX001 (ip), vehicle: saline 98 % of control

Cc1nc2ccc(Cl)cc2n1C
inactive: [7] 102 % of control | [4] 102 % of control | [5] 106 % of control

O=C(O)Cc1ccc(Cl)cc1[N+](=O)[O-]
inactive: dose: 100.0 mg/kg/injection, schedule: Q01DX001 (ip), vehicle: other 113 % of control | dose: 200.0 mg/kg/injection, schedule: Q01DX001 (ip), vehicle: other 107 % of control | dose: 400.0 mg/kg/injection, schedule: Q01DX001 (ip), vehicle: other 98 % of control

NC(=O)C1CC=CCC1 (centres undefined)
inactive: dose: 25.0 mg/kg/injection, schedule: Q04DX002 (ip), vehicle: saline with Tween-80 110 % of control | dose: 50.0 mg/kg/injection, schedule: Q04DX002 (ip), vehicle: saline with Tween-80 98 % of control | [6] 94 % of control | [8] 105 % of control

c1ccc(COCCOc2ccccc2)cc1
inactive: [1] 96 % of control | [2] 98 % of control | [3] 102 % of control

CCOC(=O)/C=C1\NC(=O)CS1
inactive: [4] 97 % of control | [1] 100 % of control | [5] 95 % of control | [2] 100 % of control | [9] 103 % of control | [3] 100 % of control

CN(Cc1ccccc1)N=Nc1ccc(C#N)cc1
inactive: [4] 104 % of control | [5] 112 % of control | [9] 112 % of control

Cc1ccc(S(=O)(=O)NC2CCC(C(=O)O)CC2)cc1 (centres undefined)
inactive: [10] 103 % of control | [11] 103 % of control | [12] 92 % of control

CC(=O)Nc1ccc(C(C)=O)cc1[N+](=O)[O-]
inactive: [4] 91 % of control | [1] 101 % of control | [5] 95 % of control | [2] 100 % of control | [9] 95 % of control | [3] 100 % of control

CC1(C)N=C(N)N=C(N)N1c1ccc(OCCCOc2ccc(S(=O)(=O)F)cc2)c(Cl)c1
inactive: dose: 6.25 mg/kg/injection, schedule: Q01DX009 (ip), vehicle: saline 104 % of control | dose: 12.5 mg/kg/injection, schedule: Q01DX009 (ip), vehicle: saline 98 % of control | dose: 25.0 mg/kg/injection, schedule: Q01DX009 (ip), vehicle: saline 104 % of control

CN(C)c1ccc(/C=N/NC(=O)c2ccccc2)cc1
inactive: dose: 3.12 mg/kg/injection, schedule: Q04DX003 (ip), vehicle: saline with Tween-80 90 % of control | dose: 6.25 mg/kg/injection, schedule: Q04DX003 (ip), vehicle: saline with Tween-80 96 % of control | dose: 12.5 mg/kg/injection, schedule: Q04DX003 (ip), vehicle: saline with Tween-80 94 % of control

C[N+]1(C)CCc2ccccc2C1Cc1ccc(Oc2ccc(CC3c4ccccc4CC[N+]3(C)C)cc2)cc1 (centres undefined)
inactive: dose: 0.2 mg/kg/injection, schedule: Q01DX009 (ip), vehicle: saline 93 % of control | dose: 0.39 mg/kg/injection, schedule: Q01DX009 (ip), vehicle: saline 96 % of control

Cc1cc(N)c(C)c(C)c1O
inactive: dose: 25.0 mg/kg/injection, schedule: Q01DX009 (ip), vehicle: saline with Tween-80 90 % of control | [7] 98 % of control | [4] 88 % of control

O=C1NCCN1c1ccc([N+](=O)[O-])cc1
inactive: dose: 12.5 mg/kg/injection, schedule: Q01DX009 (ip), vehicle: other 89 % of control | dose: 25.0 mg/kg/injection, schedule: Q01DX009 (ip), vehicle: other 103 % of control | dose: 50.0 mg/kg/injection, schedule: Q01DX009 (ip), vehicle: other 94 % of control | dose: 100.0 mg/kg/injection, schedule: Q01DX009 (ip), vehicle: other 96 % of control | dose: 200.0 mg/kg/injection, schedule: Q01DX009 (ip), vehicle: other 96 % of control

Cn1c(C(=O)c2ccncc2)cc2ccccc21
inactive: dose: 100.0 mg/kg/injection, schedule: Q01DX001 (ip), vehicle: saline with Tween-80 103 % of control | [6] 100 % of control | dose: 200.0 mg/kg/injection, schedule: Q01DX001 (ip), vehicle: saline with Tween-80 103 % of control | [8] 100 % of control | dose: 400.0 mg/kg/injection, schedule: Q01DX001 (ip), vehicle: saline with Tween-80 103 % of control | [13] 95 % of control

CC(C)(C)CC(C)(C)c1ccc(OCCOc2ccccc2NC(=O)CC(=O)c2cccc([N+](=O)[O-])c2)cc1
inactive: [10] 98 % of control | [1] 97 % of control | [11] 93 % of control | [2] 101 % of control | [12] 90 % of control | [3] 92 % of control

O=C1CC(c2ccccc2)C(c2ccccc2)N1Cc1ccccc1 (centres undefined)
inactive: dose: 100.0 mg/kg/injection, schedule: Q04DX003 (ip), vehicle: other 93 % of control | dose: 200.0 mg/kg/injection, schedule: Q04DX003 (ip), vehicle: other 93 % of control | dose: 400.0 mg/kg/injection, schedule: Q04DX003 (ip), vehicle: other 97 % of control

CC1=CC=CC2=NC(=O)CCN12
inactive: [4] 104 % of control | [1] 105 % of control | [5] 106 % of control | [2] 102 % of control | [9] 103 % of control | [3] 103 % of control

CCCCCC(C)NCCOC(=O)c1ccccc1 (centres undefined)
inactive: dose: 75.0 mg/kg/injection, schedule: Q01DX001 (ip), vehicle: saline 103 % of control | dose: 150.0 mg/kg/injection, schedule: Q01DX001 (ip), vehicle: saline 100 % of control | dose: 300.0 mg/kg/injection, schedule: Q01DX001 (ip), vehicle: saline 108 % of control

N#[N+]c1c(O)ccc2ccccc12
inactive: [6] 107 % of control | [8] 103 % of control | [13] 100 % of control

O=C1C=C(c2ccccc2)C(=O)C(c2ccccc2)=C1c1ccccc1
inactive: [6] 94 % of control | [8] 94 % of control | [13] 90 % of control
